Reference: US20240300934A1, “COMPOUNDS FOR MODULATING MYCOBACTERIUM TUBERCULOSIS RESPONSE” (priority 2021, published 2024)

What was measured:
Human plasma stability = type: in vitro ADME; conditions: after 5 h incubation
Method: (§1) Assays examining mouse and human liver microsomal stability, kinetic aqueous solubility, mouse and human plasma protein binding and stability, and human cytochrome P450 inhibition characteristics of the compounds were run by BioDuro, Incorporated, using standard protocols as previously described (Wang et al, 2020). hERG inhibition assays were also performed by BioDuro, Incorporated.

human CYP 450 1A2 = biological target: T1, human CYP 450 1A2 (Homo sapiens, UniProt P05177); assay: Human cytochrome P450 inhibition, 1A2; type: in vitro ADME; conditions: 10 μM
T1 sequence (P05177 1-516): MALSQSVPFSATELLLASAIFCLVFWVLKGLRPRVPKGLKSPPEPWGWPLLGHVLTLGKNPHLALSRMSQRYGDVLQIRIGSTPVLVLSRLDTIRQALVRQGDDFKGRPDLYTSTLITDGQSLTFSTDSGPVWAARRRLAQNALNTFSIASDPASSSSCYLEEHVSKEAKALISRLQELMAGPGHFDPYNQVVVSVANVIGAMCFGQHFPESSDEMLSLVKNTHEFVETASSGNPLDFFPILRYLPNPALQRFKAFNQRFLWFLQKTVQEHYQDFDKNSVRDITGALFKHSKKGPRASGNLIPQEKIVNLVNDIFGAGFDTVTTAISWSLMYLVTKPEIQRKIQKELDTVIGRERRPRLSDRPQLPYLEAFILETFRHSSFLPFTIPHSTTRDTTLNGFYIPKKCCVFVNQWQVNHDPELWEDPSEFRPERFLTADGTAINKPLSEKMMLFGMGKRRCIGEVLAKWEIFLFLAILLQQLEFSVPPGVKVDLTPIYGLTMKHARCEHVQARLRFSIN

Mtb [1] = conditions: PubChem AID 1259343, SID 340463129; cited from earlier work
[2] = Mouse plasma protein binding; type: in vitro ADME
Mtb in J774 cells = assay: Mtb growth in J774 macrophage-like cells (mKO fluorescence); type: cell-based, Mycobacterium tuberculosis
Outline: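 J774 cells infected with log-phase mKO-expressing Mtb (OD600=0.2 suspension), compounds dosed from 20 μM final in two-fold dilutions to 0.039 μM, or single 10 μM in 96-well format; 37° C., 5% CO2, 6 days. mKO fluorescence read, growth expressed as percent of DMSO control.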

Mouse plasma stability = type: in vitro ADME; conditions: after 5 h incubation
Method: as §1

Mtb [3] = assay: Mtb growth assay in standard 7H9 media (OD600); conditions: 10 μM
Text: Bacterial growth was tracked by measuring OD600 every 3 days for 12 days. […] Bacterial growth was tracked by measurement of D600 every 3 days over 12 days.

[4] = Mouse pharmacokinetics, single oral dose; type: in vivo, CD-1 mice
Method: Blood samples were collected in K2EDTA coated tubes pre-dose, 0.5, 1, 3 and 5 hrs post-dose, placed on ice, and centrifuged to recover plasma. The recovered plasma was kept at −80° C. as needed prior to analysis, which was performed as previously described (Wang et al, 2020). In brief, a Sciex Applied Biosystems Qtrap 4000 triple-quadrupole mass spectrometer coupled to an Agilent 1260 HPLC system was used for HPLC coupled to tandem mass spectrometry (LC-MS/MS) quantitative analysis of the samples, with chromatography attained using an Agilent Zorbax SB-C8 column (2.1×30 mm; particle size, 3.5 μm) and a reverse phase gradient elution. The aqueous mobile phase consisted of Milli-Q deionized water with 0.1% formic acid (A), while the organic mobile phase was 0.1% formic acid in acetonitrile (B). The gradient set-up was as follows: 5-90% B over 2 mins, 1 min at 90% B, then an immediate drop to 5% B and an additional 1 min at 5% B. Quantification of molecules was carried out via multiple-reaction monitoring of parent/daughter transitions in electrospray positive-ionization mode, and sample analyses accepted if quality control and standard samples had concentrations within 20% of the nominal concentration. Preparation of compounds for generation of standard curves and quality control spiking solutions were performed as previously described (Wang et al, 2020). Data were processed using Analyst software (Version 1.6.2; Applied Biosystems Sciex).

CCSc1ncc(CN2CCN(c3nc4ccccc4o3)CC2)cn1 [Compound C6, 2-(4-((2-(ethylthio)pyrimidin-5-yl)methyl)piperazin-1-yl)benzo[d]oxazole]
stability in human plasma, % remaining (Human plasma stability): 94.6%
% inhibition of CYP 1A2 (human CYP 450 1A2): < 1%
growth inhibition call in previous cholesterol media screen (Mtb [1]): positive for growth inhibition
protein binding to mouse plasma [2]: 97.0%
% Reduction of Intracellular Infection (J774.1 cells) at 10 μM cmpd (Mtb in J774 cells; 10 μM compound, J774.1 cells): 54.2 ± 2.6%
Mtb growth in J774 cells (in words) (Mtb in J774 cells; 10 μM, 6 days post-infection): Mtb growth inhibition
inhibition at 10 µM (Mtb in J774 cells; Mycobacterium tuberculosis, J774CELLS, J774, 144 h, read-out: % inhibition compared to Rif in J774 at 10 μM): 40.5 ± 0.6%
inhibition at 20 µM (Mtb in J774 cells; Mycobacterium tuberculosis, J774CELLS, J774, 144 h, read-out: % inhibition compared to Rif in J774 at 20 μM): 53.6 ± 2.7%
Inhibition of Mtb growth in J774 cells phenotype (Mtb in J774 cells; compared to C6): Y
stability in mouse plasma, % remaining (Mouse plasma stability): > 99.9%
Mtb growth in standard 7H9 media (Mtb [3]): no effect
Kp at 5 h ([4]; female, CD-1, mouse, single 25 mg/kg po dose, 5 h, lung vs plasma, read-out: Mouse PK Clung/Cplasma at t = 5 h): 0.88
AUC0-5 h ([4]; single 5 mg/kg oral (po) dose, plasma, CD-1 mice (n=2)): 5481 ng·h/mL
Mouse PK AUC0-5h ([4]; single 25 mg/kg po dose, plasma, CD-1 mice): 25713 ng·h/mL
